The source of these data is the METLIN SMRT retention time set (Domingo-Almenara et al. 2019).

The data set in a line: gradient 5% acetonitrile 3 min, to 50% in 2 min, to 85% in 15 min, held 3 min, 100 µL/min. To be noted: column: Zorbax Extend-C18 2.1 x 50 mm; eluents: water / acetonitrile, 0.1% formic acid. In short, it runs like this:
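Values are retention times taken from adduct peaks that software picked and an analyst inspected. The pure standards were run as mixtures of ~100 molecules on HPLC linked to a quadrupole time-of-flight mass spectrometer, in positive and negative ionization mode. A Zorbax Extend-C18 column (2.1 × 50 mm, 1.8 μm) was used at 100 μL/min with water and acetonitrile, each including 0.1% formic acid.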
`CCN(CC)c1ccc(NC(=O)c2nc3nc(C)cc(C(F)F)n3n2)cc1` came in with an RP-LC retention time of 598 s.

The molecule `CC(C)CCNC(=O)c1ccc2c(c1)CCCN2S(C)(=O)=O` showed an RP-LC retention time of 846 s.

`O=C(NCc1ccccc1)C1CC(=O)N(C2CN(Cc3ccc(C(F)(F)F)cc3)C2)C1` (configuration not stated) showed an RP-LC retention time of 666 s.

Molecule `COc1ccc(N2CCN(c3cc(SCC(=O)Nc4ccc(C#N)cc4)ncn3)CC2)cc1` displayed an RP-LC retention time of 890 s.

As to `Cc1cccc(N2C(=O)CN(CCc3ccccc3)[C@H]3CS(=O)(=O)C[C@H]32)c1`, the RP-LC retention time worked out at 826 s.

`CCOc1ccccc1NC(=O)Cn1ccc2ccc(-c3nnc(CC)o3)cc21` returned an RP-LC retention time of 928 s.

`CCOc1cccc(C(=O)Nc2nc(-c3ccc(C(C)(C)C)cc3)cs2)c1` gave an RP-LC retention time of 1430 s.

Take `CCOC(=O)C1CCN(C(=O)C2c3cc(OC)c(OC)cc3C(=O)N(C)C2c2cccs2)CC1` (configuration not stated): the RP-LC retention time was 728 s.

As for `CCOc1ccccc1NC(=O)c1cnn(-c2ccc(Br)cc2)c1`, the RP-LC retention time was found to be 1120 s.

Molecule `COc1ccc(C)cc1NC(=O)Nc1c(-c2ccc(F)cc2)nc2ccccn12` returned an RP-LC retention time of 714 s.

On to `O=C(c1nnc(-c2ccc(S(=O)(=O)N3CCCC3)cc2)o1)N1CCc2ccccc2C1`, for which the RP-LC retention time worked out at 980 s.

Take `CCNC(=O)c1nc(-c2ccc(C)cc2)n2c1CCCCC2`: the RP-LC retention time was determined as 738 s.

As for `COc1cccc2cc(C(=O)Nc3cc(C)nn3-c3ccccc3)oc12`, the RP-LC retention time amounted to 832 s.

The molecule `CCCNC(=O)C1CCCN(c2ccc(SCC(=O)Nc3ccc(CC)cc3)nn2)C1` (configuration not stated) yielded an RP-LC retention time of 656 s.

With `CCN(c1ccccc1)S(=O)(=O)c1cc(-c2[nH]ncc2C(=O)N2CCCCC2)oc1C`, the RP-LC retention time was 822 s.

On to `O=C(Nc1ccccc1C(F)(F)F)NC1CCN(c2ccccc2)C1=O` (configuration not stated), for which the RP-LC retention time turned out to be 841 s.

Consider `CC(C)(C)c1noc(-c2cccnc2-n2cnc(C(=O)NC3CCCC3)c2)n1`, for which the RP-LC retention time stood at 968 s.

Turning to `O=C(NCc1nc(-c2ccc(-c3csc(C4CC4)n3)cc2)no1)c1ccco1`, the RP-LC retention time came out at 830 s.

Consider `Cc1cc(Cl)ccc1NC(=O)c1cccn1-c1cccnc1`, for which the RP-LC retention time amounted to 798 s.

As to `CCN1CCCC1CNC(=O)c1nnc(-c2ccc(S(=O)(=O)N3CCOCC3)cc2)o1` (configuration not stated), the RP-LC retention time was 599 s.

With `O=c1ccc(N2CCCN(S(=O)(=O)c3ccc(Cl)cc3)CC2)nn1-c1ccccc1`, the RP-LC retention time amounted to 868 s.

In turn, `O=C(C1=NN(Cc2cc(F)cc(F)c2)c2ccccc2S1(=O)=O)N1CCCCC1` registered an RP-LC retention time of 956 s.

As to `CCCN1C(=O)Cc2ccccc2C1C(=O)NCc1ccccc1Br` (configuration not stated), the RP-LC retention time came out at 831 s.

As to `Cc1ccc(-c2nc(C3CCN(S(=O)(=O)c4c(C)cc(C)cc4C)CC3)no2)cc1`, the RP-LC retention time is 1420 s.

Molecule `COc1ccc(NC(=O)c2c(O)c3cccnc3n(-c3cccc(F)c3)c2=O)cc1` showed an RP-LC retention time of 1190 s.

`CCc1cc(=O)n(CC(=O)NCc2ccc(F)cc2Cl)c(N2CCOCC2)n1` displayed an RP-LC retention time of 749 s.

The molecule `COCCCn1c(=O)c2ccccc2n(Cc2nc(-c3ccccc3OC)no2)c1=O` displayed an RP-LC retention time of 874 s.

`COC(=O)c1ccc(NC(=O)Cn2nc3nc(N4CCCCC4C)ccn3c2=O)cc1` (configuration not stated) showed an RP-LC retention time of 778 s.

`O=C(CC1CCN(S(=O)(=O)c2ccc(Cl)s2)CC1)N1CCCCCC1` registered an RP-LC retention time of 1000 s.

For `Cc1cc(Cl)ccc1S(=O)(=O)N1CCC(F)(c2nc(CC(C)C)no2)CC1`, the RP-LC retention time came out at 1260 s.

`COc1cccc(NC(=O)N2CCC(OC3CCN(S(C)(=O)=O)CC3)CC2)c1` registered an RP-LC retention time of 731 s.

As to `O=C(c1cncc(NS(=O)(=O)c2ccc(Cl)cc2)c1)N1CCCc2ccccc21`, the RP-LC retention time stood at 880 s.

Consider `CC(C)CN(C1CCN(C)CC1)C1CN(C(=O)c2cccs2)C1`, for which the RP-LC retention time turned out to be 586 s.

Regarding `CCn1c(=O)oc2cc(-c3noc(-c4cc(SC)ccc4Cl)n3)ccc21`, the RP-LC retention time turned out to be 1270 s.

In turn, `CC(C)c1nnc(-c2ccc(S(=O)(=O)N3CCCC3)o2)o1` showed an RP-LC retention time of 815 s.

The molecule `O=C(c1ccc(=O)[nH]n1)N1CCN(S(=O)(=O)C2CC2)CC1` gave an RP-LC retention time of 552 s.

`CCc1ccc(S(=O)(=O)N2CCCC2c2nc(-c3ccc(Cl)cc3)no2)cc1` (configuration not stated) gave an RP-LC retention time of 1290 s.

`CCCNC(=O)CN1C(=O)CC(c2ccc(Br)s2)=Nc2ccccc21` came in with an RP-LC retention time of 913 s.

With `COc1ccc(OC)c(NC(=O)N2CCC(C)(C(=O)NCc3ccc4c(c3)OCO4)CC2)c1`, the RP-LC retention time is 806 s.

The molecule `C[C@H]1CN(C(=O)c2nn(C)c3ccccc23)C[C@@H]1c1nc(-c2ccncc2)no1` yielded an RP-LC retention time of 864 s.

As for `CCSc1nnc(-c2nn(C)c3c2CN(S(=O)(=O)c2cccc(Cl)c2C)CC3)n1CC`, the RP-LC retention time was 1050 s.

On to `CCn1c(C)c(CCC(=O)Nc2ccc(C)c(C)c2)c(=O)n2nc(-c3ccccc3)nc12`, for which the RP-LC retention time came to 935 s.

`Cc1cc(C)cc(NC(=O)Cn2c(C)nc3c(sc4nc(-c5ccccc5)ccc43)c2=O)c1`: the RP-LC retention time came to 1050 s.

`Cc1ccccc1-c1nc2cnccn2c1NCCC(=O)NCc1cccs1`: the RP-LC retention time stood at 649 s.

Turning to `CCN(CC)S(=O)(=O)c1ccc(C)c(-c2nnc(-c3ccccc3Cl)o2)c1`, the RP-LC retention time was 1140 s.

`CC(C)NC(=O)c1ccc(-c2nc3cc(NS(=O)(=O)CCc4ccccc4)ccc3n2C)cc1` yielded an RP-LC retention time of 694 s.

Turning to `Brc1ccc([C@H]2CN3CCSC3=N2)cc1`, the RP-LC retention time came to 645 s.

Consider `CCS(=O)(=O)Nc1ccc(-c2noc(C(C)NS(=O)(=O)c3ccc(C)cc3)n2)cc1` (configuration not stated), for which the RP-LC retention time came to 836 s.

Take `CC1CCCN(Cc2nc(Cn3ccn4nc(-c5ccc(F)cc5)cc4c3=O)no2)C1` (configuration not stated): the RP-LC retention time was 687 s.

Regarding `COc1ccc(Nc2nccc(C3CCCN(C(=O)C(C)(C)C)C3)n2)cc1` (configuration not stated), the RP-LC retention time is 892 s.

Regarding `COc1cc(Cl)c(C)cc1Nc1c(C(=O)N2CCC(C)CC2)cnc2nc(C)ccc12`, the RP-LC retention time worked out at 706 s.

Regarding `COc1ccc(-c2nc(CSc3nc4ccccc4n4c(C)nnc34)c(C)o2)cc1`, the RP-LC retention time was found to be 854 s.

In turn, `Cc1c(Cl)cccc1NC(=O)NC1CCN(c2cc(N3CCCC3)cnn2)C1` (configuration not stated) showed an RP-LC retention time of 668 s.

Regarding `Cc1ccc(C(=O)Nc2cc(-c3cccnc3)no2)cc1`, the RP-LC retention time was 764 s.

Regarding `CCCNC(=O)C1CCN(S(=O)(=O)c2cc(C(=O)N3CCC(C)CC3)n(C)c2)CC1`, the RP-LC retention time was 738 s.

For `CCOC(=O)c1c(S(=O)(=O)N2CCC(C(=O)Nc3cc(C)ccn3)CC2)c(C)n(C)c1C`, the RP-LC retention time was 644 s.

In turn, `CCOC(=O)c1nc(NCCc2cc(OC)ccc2OC)c2ccccc2n1` had an RP-LC retention time of 768 s.

In turn, `O=C1CCC(C(=O)N2C[C@@H](COCC3CC3)[C@H](c3ccccn3)C2)=NN1` returned an RP-LC retention time of 583 s.

`Cc1ccc(-c2nnc(-c3nn(C)c4c3CN(S(=O)(=O)c3ccc(F)c(Cl)c3)CC4)o2)cc1` registered an RP-LC retention time of 970 s.

Regarding `O=C(CN1C(=O)CCCc2cc(S(=O)(=O)N3CCCC3)ccc21)NC1CCCCCCC1`, the RP-LC retention time stood at 915 s.

The molecule `COc1cccc(CNC(=O)Cc2csc3nc(-c4ccc(OC)c(OC)c4)cn23)c1` registered an RP-LC retention time of 698 s.

`Cc1ccccc1NC(=O)NC1CCN(C(=O)C2CC2)C1` (configuration not stated) returned an RP-LC retention time of 660 s.

In turn, `Cc1cc(-c2csc(S(=O)(=O)NCCCN3CCN(c4ccccc4F)CC3)c2)on1` had an RP-LC retention time of 704 s.

`CCc1cccc(C)c1NC(=O)Cn1cnc2nc(N3CCC(C(=O)NC)CC3)sc2c1=O` yielded an RP-LC retention time of 646 s.

`CC(=O)c1ccc(S(=O)(=O)N2CCC(CN3CCCC(C)C3)CC2)cc1` (configuration not stated) gave an RP-LC retention time of 634 s.

The molecule `Cc1cc(F)ccc1NC(=O)CCNc1cnc2cnccn12` showed an RP-LC retention time of 578 s.

With `Cc1ccccc1Nc1c(-c2ccc(Cl)cc2Cl)nc2cnccn12`, the RP-LC retention time worked out at 1030 s.

In turn, `O=C1CC(c2nc(-c3ccccc3)no2)CN1c1ccc2c(c1)OCCO2` (configuration not stated) showed an RP-LC retention time of 933 s.

As to `COc1ccc(OC)c(NC(=O)NC(C(=O)N2CCc3ccccc32)C(C)C)c1` (configuration not stated), the RP-LC retention time was 984 s.

Molecule `COc1ccc(N2CCN(C(=O)C3CCCN(c4nc5ccccc5nc4OC)C3)CC2)cc1` (configuration not stated) came in with an RP-LC retention time of 1100 s.

In the case of `CN1[C@@H]2CC(OC(=O)[C@H](CO)c3ccccc3)C[C@H]1[C@@H]1O[C@@H]12` (some centres not stated), the RP-LC retention time turned out to be 619 s.

With `CCOc1ccc2nc(NS(=O)(=O)c3ccc4c5c(cccc35)C(=O)N4)sc2c1`, the RP-LC retention time is 703 s.

Molecule `Cc1nc2ccn(Cc3ccco3)c(=O)c2cc1C(=O)N1CCN(c2ccccn2)CC1` returned an RP-LC retention time of 602 s.

Regarding `CC(C)CCNC(=O)CN1C(=O)C2CCCCN2c2ccc(C(=O)N(C)C)cc21` (configuration not stated), the RP-LC retention time came out at 745 s.

The molecule `CCc1ccc(NC(=O)C2CCCN2S(=O)(=O)c2ccc3c(c2)CCCC(=O)N3)cc1` (configuration not stated) yielded an RP-LC retention time of 835 s.

Turning to `NC(=O)CCCCn1ccc(NC(N)=NCC(F)(F)F)n1`, the RP-LC retention time stood at 617 s.

For `CCc1noc2nc(C)n(CC(=O)NC3CCCc4ccccc43)c(=O)c12` (configuration not stated), the RP-LC retention time stood at 867 s.
